Legend:
[1] = system: WT mice exposed to TAC; assay: Histological analysis of the heart 36 days post TAC (WGA-Alexa488 and picrosirius red staining); assay type: in vivo; conditions: BCTC treated TAC mice vs vehicle treated TAC mice
Method: Tissue preparation for histology. […] For histology, hearts were perfused with phosphate-buffered saline and 10% formalin in situ, collected immediately, and fixed overnight in 10% formalin at 4° C. Tissues were then cut in a sagittal orientation, embedded in paraffin, mounted on glass slides, and stored until use. Paraffin-embedded sections were stained for the following:
Collagen: Collagen volume fraction was determined by analysis of picrosirius stained sections. Sections cut to 5 μm thickness were deparaffinized, stained with Weigert's hematoxylin, then stained with picrosirius red (0.1% Sirius Red in picric acid). Sections were subsequently washed and dehydrated before image analysis.
Cardiomyocyte cross sectional area: Heart sections were deparaffinized and permeabilized, then stained with wheat germ-agglutinin conjugated to Alexa488 (WGA-Alexa488, Invitrogen, W11261) at a concentration of 50 μg/mL to identify sarcolemmal membranes and measure cardiomyocyte cross sectional area (described below).
Image collection and analysis. […] Fibrosis and cross-sectional cardiomyocyte area were quantified using ImageJ software (NIH). To quantify fibrosis, collagen fibers were highlighted, and the red-stained pixels were counted to determine the percentage of pixels in each field that represented collagen fibers. […]

[2] = system: WT mice exposed to TAC; assay: Pressure overload cardiac hypertrophy by transverse aortic constriction (TAC): heart weight and echocardiography; assay type: in vivo
Method: Transverse Aortic Constriction (TAC). Transverse aortic constriction was performed as described by Rockman, producing left ventricular hypertrophy by constriction of the aorta (Rockman et al., 1994; Rockman et al., 1991). The left side of the chest was depilated with Nair and a baseline 2-D echocardiogram was obtained. Mice were then deeply anesthetized with a mixture of ketamine and xylazine. The transverse aorta between the brachiocephalic and left carotid artery was banded using 6-0 silk ligature around the vessel and a 26 G blunt needle, after which the needle was withdrawn. Sham surgeries were identical apart from the constriction of the aorta.
Transthoracic echocardiography. Baseline and post TAC transthoracic echocardiography were used to assess changes in mouse heart dimensions and function. Briefly, after two days of acclimatization and depilation, unanesthetized transthoracic echocardiography was performed using a 30-Mhz transducer (Vevo 770, VisualSonics). High quality two-dimensional images and M-mode images of the left ventricle were recorded. Measurements of left ventricular end-diastolic (LVIDd) and end-systolic (LVIDs) internal dimensions were performed by the leading edge to leading edge convention adopted by the American Society of Echocardiography. The left ventricular ejection fraction (% EF) was calculated as (LV Vol; d-LV Vol; s/LV Vol; d×100) (Visualsonics Inc.).
Osmotic pump installation. Long term (up to 42 day) infusion of drugs can be accomplished by insertion of osmotic pumps without the need for repeated injection. Mice are placed under a low plane of anesthesia with an injection of Ketamine/Xylazine anesthetic (50 mg/10 mg·Kg) intraperitoneally (IP) 10 minutes prior to surgery. A small area between shoulder blades is shaved and sterilized with Povidine swab. A small incision is made in this area and blunt dissected below skin to allow placement of an Alzet osmotic pump (model 2006), previously loaded with the drug of choice under the skin between the shoulder blades where it is inaccessible to the mouse. Several stitches are applied to close the incision. The mouse is placed in regular housing on a warming mat until completely conscious, after which mice are then returned to regular housing room.
The mice were subjected to pressure overload induced cardiac hypertrophy by TAC while administered 4 mg/kg of BCTC (in 20% wt/vol 2-Hydroxypropyl)-β-cyclodextrin/PBS) throughout the entire experiment using osmotic pumps (Alzet, Model 2006) pumping continuously at a rate of 0.15 ul/hr. The test was limited to ˜42 days (max) by the function of the pumps, as such the experiment was halted at 36 days post TAC, as pumps are installed previous to the TAC to allow recovery before the TAC surgery. […] This protection from dilation of the left ventricle translates to a protection in the function of the heart as measured by ejection fraction (% EF, p<0.05) and fractional shortening (% FS).

## CC(C)(C)c1ccc(NC(=O)N2CCN(c3ncccc3Cl)CC2)cc1 [BCTC, N-(4-tertiarybutylphenyl)-4-(3-chloropyridin-2-yl)tetrahydropyrazine-1(2H)-carboxamide]
[1]; p=<0.01, n=100 (FIG. 9A)
  cardiomyocyte cross sectional area: significantly smaller myocytes in BCTC treated TAC mice than vehicle treated TAC control mice
[1]; picrosirius red, p=0.05 (FIG. 9B)
  interstitial collagen (area of collagen staining as a percentage of tissue area): significantly less interstitial collagen in BCTC treated TAC mice than vehicle treated TAC control mice
[2]; TAC mice, 4 mg/kg BCTC by osmotic pump, 36 days post TAC, vs vehicle, p<0.01 (FIG. 8E)
  fractional shortening (% FS): significantly diminished at 36 days post TAC compared to drug-treated mice
[2]; TAC mice, 4 mg/kg BCTC by osmotic pump, 36 days post TAC, vs vehicle, p<0.05 (FIG. 8D)
  ejection fraction (% EF): significantly diminished at 36 days post TAC compared to drug-treated mice
[2]; TAC mice, 4 mg/kg BCTC by osmotic pump, 36 days post TAC, vs vehicle, p=0.035 (FIG. 8A)
  heart weight/body weight ratio: significantly greater in vehicle treated WT mice than drug treated mice
[2]; TAC mice, 4 mg/kg BCTC by osmotic pump, zero to 36 days, vs vehicle, significantly different after 18 days, p<0.001 (FIG. 8C)
  left ventricular internal diameter end-diastolic (LVIDd), TAC mice: significantly smaller LVIDd than the vehicle treated TAC mice
[2]; TAC mice, 4 mg/kg BCTC by osmotic pump, vehicle mice start increasing diameter at 9 days
  LVIDd over time in TAC mice: the diameter is maintained for the duration of the test
[2]; sham mice, BCTC vs vehicle, echocardiography every 9 days (FIG. 8B)
  left ventricular internal diameter (LVID,d), sham mice: no difference
